As a reminder, the EC50 is the midpoint of the concentration-response curve.

A short description of this assay: ET-1 Assay: Fibroblasts (primary human lung and dermal, HFL-1, 3T3 etc) are seeded in 96-well plates at ~15000 cells/well and serum starved for 0-48 hours. After media exchange, compounds serially diluted in DMSO are added to the cells. After a brief incubation of ~30 min, stimulants (TGFb, serum, LPA etc) are added followed by further incubation for 16-48 hours. Media is then harvested and stored frozen in plate format for later endothelin-1 (ET-1) determination by ELISA. Toxicity measurements are made using the ATPlite kit (Perkin-Elmer). ET-1 is quantified using an ELISA kit (R&D Systems). The amount of ET-1 produced in the assay wells are back-calculated using the ELISA standard. The ability of a compound to inhibit ET-1 production is typically analyzed by fitting dose-response curves to a 4-parameter logistic function to obtain an EC50 value. Conditions: HFL1.
As for `CCCCOC(=O)Nc1cc(=O)n(-c2ccc(OC(F)(F)F)cc2)cc1-c1cnn(C)c1`, the EC50 entry is “in the range around 125 µM”.
On to `O=c1ccc(Br)cn1-c1cccc(C(F)(F)F)c1`, for which the EC50 is > 200 µM.
As for `Cn1cc(-c2cn(-c3ccc(OC(F)(F)F)cc3)c(=O)cc2C(=O)O)cn1`, the EC50 is > 200 µM.
Next, `O=c1c2nccnc2ccn1-c1ccc(OC(F)(F)F)cc1`: < 50 µM; `O=c1c2[nH]ccc2c(-c2cn[nH]c2)cn1-c1ccc(Cl)cc1`: < 50 µM.
`COCCOc1ccc(-n2cc(-c3cn[nH]c3)c(C)cc2=O)cc1`: the EC50 is > 200 µM.
As for `CCOc1ccc(-n2cc(-c3cnn(C)c3)c3c(c2=O)CCCC3)c(C)c1`, the EC50 was < 50 µM.
Next, `Cn1cc(-c2cn(-c3ccc(OC(F)(F)F)cc3)c(=O)cc2NCCc2ccccc2)cn1`: > 200 µM.
The entry for `CCc1cc(=O)n(-c2ccc(OC(F)(F)F)cc2)cc1-c1ccc(F)cc1` is “in the range around 125 µM”.
Next, `Cc1cc(=O)n(-c2ccc(OC(F)(F)F)cc2)cc1-c1cccc2c1OCCO2`: < 50 µM.
Regarding `Cn1cc(-c2cn(-c3ccc(OC(F)(F)F)cc3)c(=O)cc2OC2CCS(=O)(=O)CC2)cn1`, the EC50 result is “in the range around 125 µM”.
`Cn1cc(-c2cn(-c3ccc(F)cc3)c(=O)cc2Oc2ccccc2)cn1`: the half-maximal effective concentration (EC50) was < 50 µM.
Next, `Cn1ccc2c(-c3cn[nH]c3)cn(-c3ccc(OC(F)(F)F)cc3)c(=O)c21`: < 50 µM; `CN1CCC(Oc2cc(=O)n(-c3ccc(OC(F)(F)F)cc3)cc2-c2cnn(C)c2)CC1`: < 50 µM; `Cc1ccc(=O)n(-c2ccccc2F)c1`: > 200 µM.
The figure for `CCOc1ccc(-n2cc(-c3cccc(Cl)c3)ccc2=O)c(C)c1` is < 50 µM; for `CC(=O)Nc1cccc(-n2cc(Br)ccc2=O)c1` it is > 200 µM; for `CCOc1ccc(-n2cc(-c3cnn(C)c3)c(OCCOC(C)C)cc2=O)c(C)c1` it is “in the range around 125 µM”.
Next, `Cn1cc(-c2cn(-c3ccc(OC(F)(F)F)cc3)c(=O)c3ncn(C)c23)cn1` [AKEX-0011]: < 50 µM; `Cn1cc(-c2cn(-c3ccc(OC(F)(F)F)cc3)c(=O)c3nccnc23)cn1`: < 50 µM.
As to `Cn1cc(-c2cn(-c3ccc(OC(F)(F)F)cc3)c(=O)cc2C#N)cn1`, the EC50 was < 50 µM.
Next, `CCOCCn1ccc2c(-c3cn[nH]c3)cn(-c3ccc(OC(F)(F)F)cc3)c(=O)c21`: < 50 µM.
For `Cc1cc(=O)n(-c2ccc(OC(F)(F)F)cc2)cc1C(F)(F)F`, the EC50 was > 200 µM.
Next, `Cc1cc(C)c(=O)n(-c2ccccc2)c1`: > 200 µM; `CCc1cc(=O)n(-c2ccc(OC(F)(F)F)cc2)cc1-c1cnn(C)c1`: “in the range around 125 µM”; `O=c1ccc2c(n1-c1ccccc1)CCC2`: > 200 µM.
In the case of `O=c1ccc(-c2ccccc2)cn1-c1ccncc1`, the EC50 is > 200 µM.
With `CCn1nnc2c(=O)[nH]cc(-c3cnn(C)c3)c21`, the EC50 is > 200 µM.
Next, `COc1ccc(-n2cc(-c3cccc(Cl)c3)ccc2=O)cc1`: < 50 µM; `Cc1cc(=O)n(-c2ccccc2)cc1C`: > 200 µM.
In the case of `Cc1nc2c(=O)n(-c3ccc(OC(F)(F)F)cc3)cc(-c3cn[nH]c3)c2n1C`, the EC50 is < 50 µM.
The figure for `Cn1cc(-c2cn(-c3ccc(OC(F)(F)F)cc3)c(=O)c3c2OCC(=O)N3Cc2ccccc2)cn1` is > 200 µM.
Next, `COc1cccc(-n2cc(-c3ccc(S(N)(=O)=O)cc3)ccc2=O)c1`: > 200 µM.
Consider `O=c1c2nc[nH]c2c(-c2ccc(F)cc2)cn1-c1ccc(OC(F)(F)F)cc1`, for which the EC50 was > 200 µM.
Next, `CC(=O)N1CCc2c(-c3cnn(C)c3)cn(-c3ccc(OC(F)(F)F)cc3)c(=O)c21`: “in the range around 125 µM”.
The entry for `Cc1cc(=O)n(-c2ccccc2F)cc1-c1ccccc1` is “in the range around 125 µM”.
The entry for `Cn1cc(-c2cn(-c3ccc(C#N)cc3)c(=O)c3cccnc23)cn1` is “in the range around 125 µM”; for `Cc1cc(=O)n(-c2ccc(OC(F)(F)F)cc2)cc1-c1ccc(F)c(F)c1` it is “in the range around 125 µM”; for `COc1ccc(-n2cc(C)ccc2=S)cc1` it is > 200 µM.
For the compound `CC(C)Oc1ccc(-n2cc(Br)ccc2=O)cc1`, the EC50 is > 200 µM.
For the compound `CNC(=O)Nc1cccc(-n2cc(-c3ccc(F)cc3)c(C)cc2=O)c1`, the 50% effective concentration (EC50) result was “in the range around 125 µM”.
Consider `Cc1cc(=O)n(-c2ccc(OC(F)(F)F)cc2)cc1-c1ccc2c(c1)N(C)C(=O)CO2`, for which the EC50 is < 50 µM.
With `O=c1c2c(ccn2Cc2ccccc2)c(-c2ccc(F)cc2)cn1-c1ccc(OC(F)(F)F)cc1`, the EC50 is > 200 µM.
The figure for `Cc1nc2c(=O)n(-c3ccc(OC(F)(F)F)cc3)ccc2o1` is > 200 µM; for `CCn1nnc2c(-c3cnn(C)c3)cn(-c3ccc(OC(F)(F)F)cc3)c(=O)c21` it is < 50 µM; for `O=c1ccc(-c2cncnc2)cn1-c1ccccc1F` it is > 200 µM.
Next, `Nc1cc(=O)n(-c2ccc(OC(F)(F)F)cc2)cc1-c1ccc(F)cc1`: “in the range around 125 µM”; `CCOc1ccc(-n2cc(-c3cnn(C)c3)c(NCc3ccncc3)cc2=O)c(C)c1`: “in the range around 125 µM”.
Regarding `Cc1cc(=O)n(-c2cccc3c2OCO3)cc1-c1cnn(C)c1`, the EC50 is > 200 µM.
In the case of `Cc1cc(=O)n(-c2ccc(OC(F)(F)F)cc2)cc1-c1nnnn1C`, the EC50 is > 200 µM.
With `CC(=O)Nc1cccc(-n2cc(C(F)(F)F)ccc2=O)c1`, the EC50 is > 200 µM.
For `CC(C)n1ccc2c(-c3cn[nH]c3)cn(-c3ccc(OC(F)(F)F)cc3)c(=O)c21`, the half-maximal effective concentration (EC50) is < 50 µM.
On to `Cn1cc(-c2cn(-c3ccc(OC(F)(F)F)cc3)c(=O)cc2N2CCOCC2)cn1`, for which the EC50 was < 50 µM.
For `Cc1cc(=O)n(-c2ccc(OC(F)(F)F)cc2)cc1-c1cccc2c1N(C)C(=O)CO2`, the EC50 was > 200 µM.
As for `CCn1ccc2c(-c3cnn(C)c3)c[nH]c(=O)c21`, the 50% effective concentration (EC50) was < 50 µM.
Next, `Cn1cc(C2=CN(c3ccc(OC(F)(F)F)cc3)CC=C2Oc2ccc(C(N)=O)cc2)cn1`: < 50 µM; `Cn1ccc2c(-c3cn[nH]c3)cn(-c3ccc(Cl)cc3)c(=O)c21`: < 50 µM; `O=C1NC=CCN1c1ccccc1`: > 200 µM.
Next, `COCCOCCOCCOc1ccc(-n2cc(C)ccc2=O)cc1`: > 200 µM; `Cc1cc(=O)n(-c2ccc(Cl)cc2)cc1-c1cn[nH]c1`: > 200 µM.
For `Cn1cc(-c2c[nH]c(=O)c3[nH]ccc23)cn1`, the EC50 is < 50 µM.
As for `Cc1cc(=O)n(-c2ccc(OC(F)(F)F)cc2C)cc1-c1cnn(C)c1`, the EC50 is > 200 µM.
Next, `O=c1c2ncn(Cc3ccccc3)c2c(-c2ccc(F)cc2)cn1-c1ccc(OC(F)(F)F)cc1`: > 200 µM; `Cc1cc(=O)n(-c2ccc(OC(F)(F)F)cc2)cc1-c1cccc2c1NC(=O)CO2`: > 200 µM; `CC(=O)c1ccc(=O)n(-c2cccc(C(F)(F)F)c2)c1`: > 200 µM.
As to `Cn1cc(-c2cn(-c3ccc(OC(F)(F)F)cc3)c(=O)c3c2CCN3C(=O)OC(C)(C)C)cn1`, the EC50 was < 50 µM.
Next, `CC(=O)c1ccc(=O)n(-c2ccc(Cl)cc2)c1`: > 200 µM; `CCOc1ccc(-n2cc(-c3ccc(F)cc3)c(OC)cc2=O)c(C)c1`: < 50 µM; `Cn1cc(-c2cn(-c3ccc(OC(F)(F)F)cc3)c(=O)cc2OCCN2CCOCC2)cn1`: > 200 µM.
The figure for `Cn1cc(-c2cn(-c3ccc(O)cc3)c(=O)cc2Oc2ccccc2)cn1` is > 200 µM.
Take `COCCOc1ccc(-n2cc(-c3ccccc3)c(C)cc2=O)cc1`: the EC50 is < 50 µM.
`Cc1cc(=O)n(-c2ccc(OC(F)(F)F)cc2)cc1-c1ccc2ocnc2c1`: the concentration for a half-maximal effect (EC50) is < 50 µM.
Next, `COc1ccc(-c2ccc(=O)n(-c3ccccc3Cl)c2)cc1`: “in the range around 125 µM”.
The entry for `O=c1cc(OCCN2CCOCC2)c(-c2ccc(F)cc2)cn1-c1ccc(OC(F)(F)F)cc1` is “in the range around 125 µM”; for `Cc1cc(=O)n(-c2ccc3ocnc3c2)cc1-c1cnn(C)c1` it is > 200 µM; for `O=C1CNCCN1CCOc1cc(=O)n(-c2ccc(OC(F)(F)F)cc2)cc1-c1ccc(F)cc1` it is > 200 µM.
The figure for `CCn1nc2c(-c3ccc(F)cc3)cn(-c3ccc(OC(F)(F)F)cc3)c(=O)c2n1` is > 200 µM; for `Cc1ccc(=S)n(-c2ccc(OC(F)(F)F)cc2)c1` it is “in the range around 125 µM”.
For `CCOc1ccc(-n2cc(-c3cnn(C)c3)c(NCc3ccc(F)cc3F)cc2=O)c(C)c1`, the EC50 is < 50 µM.
The figure for `COc1cc(-n2cc(-c3cn[nH]c3)c(C)cc2=O)cc(OC)c1OC` is > 200 µM; for `O=c1ccc(-c2cn[nH]c2)cn1-c1ccc(F)cc1` it is “in the range around 125 µM”.
Next, `CCOc1ccc(-c2c(-c3ccc(F)cc3)c(=O)c2=O)c(C)c1`: < 50 µM; `Cn1cc(-c2cn(-c3ccc(OC(F)(F)F)cc3)c(=O)c3[nH]ccc23)cn1`: < 50 µM; `CCOc1ccc(-n2cc(-c3ccccc3)c(C)cc2=O)c(C)c1`: “in the range around 125 µM”.
On to `O=c1c2[nH]nnc2c(-c2ccc(F)cc2)cn1-c1ccc(OC(F)(F)F)cc1`, for which the EC50 result is “in the range around 125 µM”.
Consider `Cc1cc(=O)n(-c2ccc(OC(F)(F)F)cc2)cc1-c1ccnn1C`, for which the concentration giving a half-maximal response (EC50) was > 200 µM.
The figure for `Cc1nc2c(-c3cnn(C)c3)cn(-c3ccc(OC(F)(F)F)cc3)c(=O)c2s1` is < 50 µM; for `O=c1ccc(Br)cn1-c1ccc(F)cc1` it is > 200 µM.
The figure for `Cn1cc(-c2cn(-c3ccc(Cl)cc3)c(=O)cc2Oc2ccccc2)cn1` is < 50 µM; for `CCOc1ccc(-n2cc(-c3cnn(C)c3)c(NCc3ccccc3)cc2=O)c(C)c1` it is < 50 µM.

These data come from ChEMBL document CHEMBL5725356, “Anti-fibrotic pyridinones” (2017).
